Source: US7981914B2, “Tetrazole-substituted aryl amide derivatives and uses thereof” (Roche Palo Alto LLC, priority 2007, dated 2011)

Molecular target: T1, human nicotinic alpha7 WT receptor (Homo sapiens, UniProt P36544)
T1 construct: expressed in transfected cells; host or cells: GH4C1 (rat pituitary-derived cell line), RPA clone #34.7
Experiment: Nicotinic alpha 7 Modulation Assay (FLIPR)
Format: cell-based
Conditions: GH4C1 cells stably expressing human nicotinic alpha7 WT receptor, ACh 30 μM, positive control 1 μM PNU-120596
Experimental: Nicotinic alpha 7 Modulation Assay
Cell Culture Growth Media: F10 medium (Invitrogen), 2.5% Fetal Bovine Serum (FBS, Summit Biotechnology); 15% heat inactivated donor Horse Serum (Invitrogen), 250 μg/ml Hygromycin B (Invitrogen); and 100 nM Methyllicaconite (MLA, Sigma) are added to each new culture by 50-fold dilution of stock solution prepared in H2O at 5 μM.
GH4C1 cells (rat pituitary-derived cell line) stably expressing human nicotinic alpha7 WT receptor (RPA clone #34.7) are cultivated in cell culture growth media (described above) at 37 C in a humidified atmosphere containing 4% CO2. […]
The alpha 7 nAChR assay is a cell-based functional readout designed to determine the effect of test compounds to either directly activate nicotinic receptor channels and/or to modulate activation by the native agonist acetylcholine (ACh, Sigma). […]
Assay of test compound effect on activation of the alpha7 nicotinic receptor channel is done by measurement of cytosolic [Ca^2+] elevation as reported by increased FLUO-3 fluorescence using a two addition experimental design and FLIPR™ (Molecular Devices). Following a 30 second baseline recording, test compounds are added online (dilution scheme below) and cell response is recorded for an additional 5 minutes. After a second addition of ACh (30 μM, FAC), plates are read for an additional 4 minutes. […]

T1 sequence (P36544 23-502): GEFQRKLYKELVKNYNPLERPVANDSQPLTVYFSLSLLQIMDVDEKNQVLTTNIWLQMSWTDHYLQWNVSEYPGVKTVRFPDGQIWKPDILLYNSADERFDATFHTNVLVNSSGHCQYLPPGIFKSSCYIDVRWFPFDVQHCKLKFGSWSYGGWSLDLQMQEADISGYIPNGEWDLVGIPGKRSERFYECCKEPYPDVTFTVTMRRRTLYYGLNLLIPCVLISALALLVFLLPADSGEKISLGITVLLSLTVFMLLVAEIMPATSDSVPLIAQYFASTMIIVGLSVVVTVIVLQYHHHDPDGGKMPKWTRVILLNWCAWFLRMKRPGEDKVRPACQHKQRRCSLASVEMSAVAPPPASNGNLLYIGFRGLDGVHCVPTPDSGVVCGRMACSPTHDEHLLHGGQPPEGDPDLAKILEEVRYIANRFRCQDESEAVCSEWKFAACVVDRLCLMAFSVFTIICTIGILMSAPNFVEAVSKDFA

positive allosteric modulation: 467.65
SMILES: COc1ccccc1-c1cc(C(=O)NCCc2ccc(S(N)(=O)=O)cc2)cc(-n2cnnn2)c1 [Compound 4, 2′-Methoxy-5-tetrazol-1-yl-biphenyl-3-carboxylic acid [2-(4-sulfamoyl-phenyl)-ethyl]-amide]
